Experimental data taken from patent US9775856B2, “C-glycosylpolyphenol antidiabetic agents, effect on glucose tolerance and interaction with beta-amyloid. therapeutic applications of the synthesized agent(s) and of Genista tenera ethyl acetate extracts containing some of those agents” (FACULDADE DE CIENCIAS DA UNIVERSIDADE DE LISBOA, priority 2012, dated 2017).
Values after ≈ are worked out from the molar mass of the structure shown. Each block holds one compound with its values, some of them ahead of it.

Key:
[1] = test system: STZ induced diabetic Wistar rats; conditions: previous research work; cited from earlier work
[2] = test system: mouse HII4E hepatoma cells; test: In vitro acute toxicity, MTT cell viability assay; format: cell-based; conditions: 24 h exposure
Experimental: Acute cytotoxicity measurements were performed by the MTT method. The 3-(4,5-dimethylthiazol-2-yl)-2,5-diphenyltetrazolium bromide (MTT) assay was used to quantify metabolically viable cells in all samples. Adherent cells (mouse HII4E hepatoma cells) were seeded onto 96-well plates, allowed to attach for 24 h and exposed to the test compound for the following 24 h. Positive control (hydrogen peroxide), negative control (DMSO) and chloramphenicol were also included. At 48 h of culture, MTT was added to the cells at a final concentration of 0.5 mg/mL, followed by an incubation period of 3 h to allow the formazan crystals to form. After incubation, medium was removed, cells were washed twice to remove traces of medium and un-metabolized MTT, and DMSO (100 μL) was added to each well. Solubilisation of formazan crystals was performed by agitation in a 96-well plate shaker for 20 min at room temperature. Absorbance of each well was quantified at 550 nm, using 620 nm as reference wavelength on a scanning multiwell spectrophotometer (automated microplate reader).

[3] = 1H-NMR 2D DOSY diffusion coefficient; format: physicochemical; conditions: DOSY spectrum acquired on the G. tenera extract at 25° C.
Experimental: NMR experiments were recorded on a Varian 400-MHz Mercury instrument. The basic VARIAN sequences were employed for 2D-TOCSY, 2D-NOESY, ^13C-HSQC, DOSY and STD experiments. […] A ^1H spectrum was acquired with a recycle delay of 60 s to achieve the complete relaxation of all the resonances at each scan.

[4] = Solubility in PBS; format: physicochemical; conditions: pure compound in PBS
[5] = molecular target: T1, Aβ1-42 oligomers (Homo sapiens, UniProt P05067); test: NMR binding studies (STD-NMR, trNOESY) with beta-amyloid oligomers; conditions: Aβ1-42 80 uM, deuterated PBS pH 7.5
T1 construct: lyophilized Aβ1-42 was dissolved in 10 mM NaOD in D2O at a concentration of 160 μM
T1 sequence (P05067 672-713): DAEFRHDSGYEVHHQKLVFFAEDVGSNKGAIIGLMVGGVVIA
Experimental: The selection was made through sample characterization by NMR spectroscopy, as previously described Immediately before use, lyophilized Aβ1-42 was dissolved in 10 mM NaOD in D2O at a concentration of 160 μM, then diluted 1:1 with 10 mM phosphate buffer saline, pH 7.4 containing 100 mM NaCl (PBS) and ethyl acetate extract of G. tenera or one of the tested compounds. […] The pH of each sample was verified with a Microelectrode (Mettler Toledo) for 5 mm NMR tubes and adjusted with NaOD and/or DCl. All pH values were corrected for isotope effect.
NMR experiments were recorded on a Varian 400-MHz Mercury instrument. The basic VARIAN sequences were employed for 2D-TOCSY, 2D-NOESY, ^13C-HSQC, DOSY and STD experiments. For STD, a train of Gaussian-shaped pulses each of 50 ms was employed to saturate selectively the protein envelope; the total saturation time of the protein envelope was adjusted by the number of shaped pulses and was varied between 3 s and 0.3 s. A ^1H spectrum was acquired with a recycle delay of 60 s to achieve the complete relaxation of all the resonances at each scan.

Compound: O=c1cc(-c2ccc(O)cc2)oc2cc(O)cc(O)c12 [apigenin]
blood glucose levels [1]: significantly lowered blood glucose levels

Compound: OO [Compound H2O2, hydrogen peroxide]
IC50 in vitro acute toxicity [2]: 2 µg/mL (≈ 58.8 µM)

Compound: O=c1c(-c2ccc(O)cc2)coc2cc(O[C@@H]3O[C@H](CO)[C@@H](O)[C@H](O)[C@H]3O)cc(O)c12 [genistein-7-O-glucoside, Genistein 7-O-β-D-glucoside]
diffusion coefficient [3]: 2.65±0.035 10^−10 m^2/s | solubility in PBS [4]: insolubility

Compound: O=C(N[C@H](CO)[C@H](O)c1ccc([N+](=O)[O-])cc1)C(Cl)Cl [Chloramphenicol, chloramphenicol]
IC50 [2]: 143 µg/mL (≈ 443 µM)

Compound: C[S+](C)[O-] [DMSO]
IC50 in vitro acute toxicity [2]: 199 µg/mL (≈ 2550 µM)

binding to Aβ1-42 oligomers (STD-NMR, trNOESY), words [5]: efficient Aβ oligomer ligand
Compound: O=c1c(-c2ccc(O)cc2)coc2cc(O)cc(O)c12 [genistein]
blood glucose levels [1]: significantly lowered blood glucose levels

Compound: COc1cc(-c2cc(=O)c3c(O)cc(O)cc3o2)ccc1O [chrysoeriol]
blood glucose levels [1]: significantly lowered blood glucose levels
